{"source": "patent US20050119330A1", "about": "“Use of antiproliferative agents in the treatment and prevention of pulmonary proliferative vascular diseases” (priority 2003, published 2005)", "key": {"[1]": {"tested_on": "pneumonectomized, monocrotaline-treated rats", "assay": "Chronic model of pulmonary arterial hypertension (monocrotaline four weeks after pneumonectomy), rescue treatment", "assay_type": "in vivo", "protocol": "Methods: Rats were treated as described in Example 1, except that monocrotaline was administered four weeks after pneumonectomy. Pulmonary hypertension developed at Week 8 and increased in severity until death at Week 13. […] Hemodynamic measurements were performed on control and treated rats in order to determine mean arterial pressures and pressures at the right ventricle.\nA quantitative analysis of neointimal luminal obstruction on 25 consecutive small pulmonary arteries from each rat in Group N, PMV0w, PMV2w, PMS2w, PMS6w, and PMS13w was performed (FIGS. 10A-10D). Histological samples were prepared and stained using Elastin-van-Geison (EVG) stain, ×600. Vessels were assessed for neointimal proliferative lesions and scored: Grade 0 for no evidence of neointimal formation, Grade 1 for less than 50% luminal occlusion, Grade 2 for >50% luminal occlusion."}, "[2]": {"tested_on": "pneumonectomized, monocrotaline-treated rats", "assay": "Acute model of pulmonary arterial hypertension (left pneumonectomy, monocrotaline on Day 7)", "assay_type": "in vivo, Sprague-Dawley rats", "settings": "for right ventricular systolic pressure (RVSP): Day 35; for mean pulmonary arterial pressure (mPAP): measured Day 35; for vascular occlusion score (VOS), 0 to 2: 25 consecutive small pulmonary arteries per rat", "protocol": "Methods: On Day, 0, thirty pathogen-free 13-week-old, male Sprague-Dawley rats (350-400 g) were intubated, anesthetized with halothane (0.5%), and then underwent left pneumonectomy via thoracotomy as described in Faul, J. L. et al. (2000) Am. J. Respir. Crit. Care Med. 162:2252-2258; and Nishimura, R. et al., (2001) Am. J. Respir. Crit. Care Med. 163:498-502. On Day 7, rats received a single subcutaneous injection in the right hind limb of the plant alkaloid monocrotaline (60 mg/kg; Sigma, St. Louis, Mo.). Rats that were not subjected to any treatment were also included in the study (“normal” or “N”).\nTwenty-four rats received monocrotaline (60 mg/kg s.c.), seven days after pneumonectomy. […] Rats that were not subjected to any treatment were also included in the study (“normal” or “N”). Rats in the control group, PMV (n=6), received vehicle (V) by oral gavage every day, beginning on Day 5.\nOn Day 35, rats underwent pulmonary artery catheterization for measurements of mean pulmonary artery pressures and right ventricular systolic pressures. Mean arterial, mean pulmonary arterial and right ventricular systolic blood pressures (mPAP and RVSP, respectively) were measured as described by Faul et al. and Nishimura et al. After exsanguination, the right lung, right ventricle and left ventricle plus septum were collected for histology. The organs were weighed and preserved and the RV/LV&S ratios determined. Organs fixed in formalin were embedded in paraffin, cut in 3 micron sections and stained with hematoxylin and eosin, and with elastin-von Geison stain.\nThe severity of neointimal formation was scored on elastin-van Geison (EVG)-stained lung sections: the absence of neointimal formation equals 0; the presence of neointimal proliferation causing less than 50% luminal narrowing equals 1; luminal narrowing greater than 50% equals 2. Immunohistochemistry was performed on formalin-fixed, paraffin-embedded lung sections using antibodies to α-smooth-muscle actin (Dako, 1:30 dilution, linked to alkaline phosphatase), and CD31, a monoclonal antibody with specificity for endothelial cells lining the vascular lumen (Dako, 1:40 dilution, detected using avidin-biotin-peroxidase method). Samples of right lung were immediately placed in 2.5% paraformaldehyde and routinely processed for transmission electron microscopy. Reverse-transcription PCR was used to amplify portions of the rat endothelial nitric oxide synthase gene (eNOS, GenBank U02534) and actin B (GenBank V01217) from rat lung. Primer sequences for eNOS were: 5′-[…]-3′ (SEQ ID NO:1) and 5′-[…]-3′ (SEQ ID NO:2). Five micrograms of total lung RNA were reverse-transcribed and amplified by PCR as described in Aoki, Y., et al. (1997) Am. J. Physiol. 272:L272-284. Endothelial NOS protein (60 μg) was analyzed by Western immunoblotting as described in Zhao, G. et al. (2000) Am. J. Physiol. 279:L958-L966, using anti-eNOS primary antibody (Santa Cruz sc-8311)."}, "[3]": {"tested_on": "pneumonectomized, monocrotaline treated rats", "settings": "Faul et al. 2000; Nishimura 2001; cited from earlier work"}, "[4]": {"settings": "Group PMS2w: two weeks of treatment"}, "[5]": {"settings": "Group PMS6w: 6 weeks of treatment"}, "[6]": {"settings": "after 13 weeks of simvastatin treatment"}}, "note": "Values joined by “and” are separate entries in the source; they are usually repeats but may differ in a detail not shown here. Identical values can stand only once.", "data": [{"smiles": "CCC(C)(C)C(=O)O[C@H]1C[C@@H](C)C=C2C=C[C@H](C)[C@H](CC[C@@H]3C[C@@H](O)CC(=O)O3)[C@H]21", "note": "[simvastatin]", "values": [{"measurement": "mean pulmonary arterial pressure (mPAP)", "setting": "[1]; Group PMS2w: 2 mg/kg/day for two weeks from Week 11", "result": "36±2", "unit": "mm Hg"}, {"measurement": "right ventricular systolic pressure (RVSP)", "setting": "[1]; [4]", "result": "53±7", "unit": "mmHg"}, {"measurement": "vascular occlusion score (VOS), 0 to 2", "setting": "[1]; [4]", "result": 1.34}, {"measurement": "mean pulmonary arterial pressure (mPAP)", "setting": "[1]; Group PMS6w: 2 mg/kg/day for 6 weeks from Week 11", "result": "24±3", "unit": "mm Hg"}, {"measurement": "right ventricular systolic pressure (RVSP)", "setting": "[1]; [5]", "result": "34±3", "unit": "mmHg"}, {"measurement": "vascular occlusion score (VOS), 0 to 2", "setting": "[1]; [5]", "result": 0.83}, {"measurement": "vascular occlusion score (VOS), 0 to 2", "setting": "[1]; Group PMS13w: 13 weeks of treatment", "result": 0.65}, {"measurement": "mean pulmonary arterial pressure (mPAP)", "setting": "[1]; [6]", "result": "22±3", "unit": "mm Hg"}, {"measurement": "right ventricular systolic pressure (RVSP)", "setting": "[1]; [6]", "result": "30±3", "unit": "mmHg"}, {"measurement": "survival", "setting": "[1]; simvastatin 2 mg/kg/day oral gavage from Week 11, no mortality up to Week 23, vehicle 0% survival at Week 15", "result": 100, "unit": "%"}, {"measurement": "right ventricular systolic pressure (RVSP)", "setting": "[2]; Group PMS5-14: 2 mg/kg/day oral gavage Days 5-14", "result": "66±12", "unit": "mm Hg"}, {"measurement": "mean pulmonary arterial pressure (mPAP)", "setting": "[2]; Group PMS5-14: simvastatin 2 mg/kg/day oral gavage Days 5-14", "result": "44±4", "unit": "mm Hg"}, {"measurement": "vascular occlusion score (VOS), 0 to 2", "setting": "[2]; Group PMS5-14", "result": "0.78±0.40"}, {"measurement": "right ventricular systolic pressure (RVSP)", "setting": "[2]; Group PMS5-35: 40 mg/kg/day oral gavage Days 5-35", "result": "37±4", "unit": "mm Hg"}, {"measurement": "mean pulmonary arterial pressure (mPAP)", "setting": "[2]; Group PMS5-35: simvastatin 40 mg/kg/day oral gavage Days 5-35", "result": "27±3 mm Hg and 27 mm Hg"}, {"measurement": "vascular occlusion score (VOS), 0 to 2", "setting": "[2]; Group PMS5-35", "result": "1.5 and 0.59±0.46"}, {"measurement": "right ventricular systolic pressure (RVSP)", "setting": "[2]; Group PMS15-35: 40 mg/kg/day oral gavage Days 15-35", "result": "54±10", "unit": "mm Hg"}, {"measurement": "mean pulmonary arterial pressure (mPAP)", "setting": "[2]; Group PMS15-35: simvastatin 40 mg/kg/day oral gavage Days 15-35", "result": "38±3", "unit": "mm Hg"}, {"measurement": "vascular occlusion score (VOS), 0 to 2", "setting": "[2]; Group PMS15-35", "result": "0.93±0.38"}]}, {"smiles": "CC(C)[C@]12O[C@H]1[C@@H]1O[C@]13[C@]1(O[C@H]1C[C@H]1C4=C(CC[C@@]13C)C(=O)OC4)[C@@H]2O", "note": "[triptolide]", "values": [{"measurement": "development of pulmonary arterial hypertension and neointimal formation", "setting": "[3]", "result": "could inhibit the development of pulmonary arterial hypertension and neointimal formation"}]}]}
